Columns and labels:
DC2.4 cells = test: MHC I cross presentation of OVA257-264 in DC2.4 cells; type: cell-based, murine; conditions: 6 h incubation with 5 μM solution, with or without SiO2—PO3H2; 25-D1.16 antibody, flow cytometry
Method: In the experiment, the OVA257-264 presentation efficacy after incubation of 5·10^4 DC2.4 cells with 5 μM solutions of full length protein (OVA=Ovalbumin), N- and C-terminal elongated epitope (OVA247-264A5K, a so called synthetic long peptide (SLP)), N-terminal elongated epitope with a Cathepsin B cleavable sequence (exemplary shown RW-Cit-OVA257-264) or native epitope (OVA 257-264), each with and without nanoparticles, was compared. […] After an incubation time of 6 h, the test substances are removed by washing with phosphate-buffered saline (PBS). In the next step, the cells were incubated with CD16/CD32 antibody in order to block the non-specific binding of the detection antibody to the Fc (Fragment, crystallizable) receptor of the cells. After incubation with 25-D1.16 antibody, the amount of cross-presented OVA257-264 was quantified by flow cytometry.
FIG. 16: OVA257-264 MHC I presentation after 6 h incubation of H2-Kb positive cells with 5 μM solution of native or elongated OVA257-264 epitope or full length OVA protein with or without SiO2—PO3H2. Quantification was carried out by flow cytometry after labeling with 25-D1.16 detection antibody.

[1] = Stability measurement in human serum (HEK-Blue hTLR3 cell readout); type: in vitro ADME; conditions: 20% human serum, 37° C., 1 μg poly(I:C)/mL
[2] = Stability measurement in bovine serum (HEK-Blue hTLR3 cell readout); type: in vitro ADME; conditions: 60 minutes at 37° C., 5, 10 and 20% FBS
Excerpt: HEK-Blue™ hTLR3 Cells are designed to measure the stimulation of […] monitoring the activation of NF-kB. HEK-Blue™hTLR3Cells were obtained by co-transfection of the hTLR3 gene and an optimized secreted embryonic alkaline phosphatase (SEAP) reporter gene placed under the control of an NF-kB and AP-1-inducible promoter intoHEK293 cells. Stimulation with a TLR3 ligand activates NF-kB and AP-1 which induce the production of SEAP. Levels of SEAP can be easily determined with HEK-Blue™ Detection, a cell culture medium that allows for real-time detection of SEAP. The hydrolysis of the substrate by SEAP produces a purple/blue color that can be easily detected with the naked eye or measured with a 96 well plate reader (Invivogen).
The serum was used in concentrations of 5, 10 and 20%. A serum concentration of 20% corresponds quite well to the composition of peripheral lymph.
The poly(I:C) payload at SiO2—Arg in this case was about 2.5%. After exposure to FBS 20 μL of the medium were taken and added to 180 μL HEK-Blue™ hTLR3 cells in HEK-Blue™ Detection medium. This mixture was incubated for 13 hours at 37° C. and the plate was analyzed in a 96 well plate reader (Tecan Reader, Type: Infinite M200 Pro).

[3] = Solubility enhancement of epitopes (solubility in water); type: physicochemical
Excerpt: On the N-terminal site of the enzymatically cleaved linker the addition of polar amino acids can be used to enhance the solubility of the whole peptide. […] The use in a human vaccine is difficult. In animal studies researchers dissolve it in DMSO. The solubility after e.g. subcutaneous injection is questionable: dilution might result in precipitation of large peptide particles, which is very unfavorable for transport to lymphnodes.
According to the invention the epitope […] was enlarged on the N-terminal site with the enzymatic cleavable linker Val-Cit and the cationic solubilizing sequence Lys-Lys-Lys, leading to • KKKV-Cit-[…].
After endosomal and/or cytosolic cleavage by cathepsin B the native HPV 16 E782-90 is released. Also the remaining KKKV-Cit is not immunogenic, due to the fact it's too short to be presented at any MHC I or MHC II.

Compound | OVA257-264 MHC I presentation (DC2.4 cells) | solubility in water [3] | further results
RW-Cit-OVA257-264 | presented in significant amounts |  | 
polyinosinic: polycytidylic acid [poly(I:C)] |  |  | % of initial concentration after 60 minutes [1]: 18%; calculated half-life [1]: 24.2 min; stability in fetal bovine serum [2]: clear signs of degradation at higher serum concentrations
CC[C@H](C)[C@H](NC(=O)CNC(=O)[C@H](CC(C)C)NC(=O)[C@@H](NC(=O)CNC(=O)[C@H](CCSC)NC(=O)[C@H](CC(C)C)NC(=O)[C@@H](N)CC(C)C)[C@@H](C)O)C(=O)N[C@H](C(=O)O)C(C)C |  | very bad | 
CC[C@H](C)[C@H](NC(=O)CNC(=O)[C@H](CC(C)C)NC(=O)[C@@H](NC(=O)CNC(=O)[C@H](CCSC)NC(=O)[C@H](CC(C)C)NC(=O)[C@H](CC(C)C)NC(=O)[C@H](CCCNC(N)=O)NC(=O)[C@@H](NC(=O)[C@H](CCCCN)NC(=O)[C@H](CCCCN)NC(=O)[C@@H](N)CCCCN)C(C)C)[C@@H](C)O)C(=O)N[C@H](C(=O)O)C(C)C |  | excellent | 
SIINFEKL [OVA257-264] | presented in significant amounts |  | 

From patent US20260000754A1, “NANOPARTICLES AS CARRIER-SYSTEM FOR ADJUVANTS/ANTIGENS” (UNIVERSITAT HEIDELBERG, priority 2020, published 2026)
